From PubChem BioAssay (NCI) come the findings set out here.

Some test systems named below: NCI-H23 lung; HCC-2998 colon; SF-539 CNS; A549 NSCLC; ACHN renal; MALME-3M melanoma; RPMI-8226 leukemia; HT29 colon; SK-MEL-5 melanoma; NCI-H226 lung.
Holding throughout (assay): NCI-60 cell line screen, 48 h

Molecules are shown by their SMILES.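 Five concentrations, 48 hours, 96-well plates. Abbreviation: GI50, concentration required for 50% inhibition of growth. Definition used: TGI = concentration required for complete inhibition of growth.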

`CC(C)C(C(=O)O)N(CC1(O)OCC(O)C(O)C1O)N=O` (configuration not stated): the TGI with NCI-H23 lung, with HCC-2998 colon, in the assay on SF-539 CNS, with A549 NSCLC, in the assay on ACHN renal and in the assay on MALME-3M melanoma was more than 100 µM in each case. Further, the TGI in the assay on RPMI-8226 leukemia, in the assay on HT29 colon and with SK-MEL-5 melanoma was more than 100 µM in each case.
Consider `Nc1ccccc1C#CC#Cc1ccccc1N`, for which the GI50 is 4.04 µM in the assay with NCI-H23 lung; 13.8 µM in the assay with A549 NSCLC; 10.6 µM with ACHN renal; 35.2 µM in the assay with MALME-3M melanoma; 8.08 µM in the assay with RPMI-8226 leukemia; 20.6 µM with HT29 colon. Further, the GI50 in the assay with SK-MEL-5 melanoma was 4.36 µM. Further, the TGI is 22 µM in the assay with NCI-H23 lung; 87.4 µM with A549 NSCLC; 22.9 µM in the assay on ACHN renal; 61.3 µM in the assay with MALME-3M melanoma; more than 100 µM with RPMI-8226 leukemia; more than 100 µM with HT29 colon. For the same molecule, the TGI with SK-MEL-5 melanoma worked out at 17.9 µM.
Consider `Oc1ccc2ccccc2c1C=NCCCN=Cc1c(O)ccc2ccccc12`, for which the GI50 is 0.829 µM in the assay with NCI-H226 lung; 3.13 µM in the assay on NCI-H23 lung; 17.8 µM in the assay with SF-539 CNS; 32.1 µM in the assay with A549 NSCLC; 5.73 µM in the assay on ACHN renal; 6.96 µM in the assay with MALME-3M melanoma. Also, the GI50 with RPMI-8226 leukemia is 4.11 µM; in the assay with HT29 colon, 19.7 µM; in the assay with SK-MEL-5 melanoma it was 4.61 µM. The TGI is 12.9 µM in the assay with NCI-H226 lung; 13 µM in the assay with NCI-H23 lung; 40.8 µM with SF-539 CNS; more than 100 µM in the assay on A549 NSCLC; 34.9 µM with ACHN renal; 29.7 µM in the assay on MALME-3M melanoma. For the same molecule, the TGI in the assay on RPMI-8226 leukemia came out at 31.1 µM; with HT29 colon, 63.3 µM; in the assay with SK-MEL-5 melanoma, 16 µM.
Regarding `COC(=O)c1c[nH]cc1CCc1c[nH]cc1C(=O)OC`, the TGI with NCI-H226 lung, with NCI-H23 lung, in the assay with HCC-2998 colon, in the assay with SF-539 CNS, with A549 NSCLC and in the assay on ACHN renal was more than 100 µM throughout. Besides, the TGI with MALME-3M melanoma and in the assay on HT29 colon was more than 100 µM each time.
As to `CCCN1C(=O)C/C(=C\C(C)=O)Nc2ccccc21`, the TGI with NCI-H226 lung, in the assay on NCI-H23 lung, in the assay with HCC-2998 colon, with SF-539 CNS, with A549 NSCLC and in the assay on ACHN renal was more than 100 µM throughout. Besides, the TGI with MALME-3M melanoma, with HT29 colon and in the assay with SK-MEL-5 melanoma was more than 100 µM throughout.
Regarding `COc1ccc(-c2ccc(C3CC(c4ccc(O)cc4)=NN3)o2)c([N+](=O)[O-])c1` (configuration not stated), the GI50 in the assay with NCI-H226 lung is 36.4 µM; in the assay with NCI-H23 lung, 42.5 µM; in the assay with SF-539 CNS, 27.4 µM; in the assay on A549 NSCLC, 25.7 µM; in the assay on ACHN renal, 42 µM; in the assay with MALME-3M melanoma, 19.1 µM. For the same molecule, the GI50 is 11.6 µM in the assay with RPMI-8226 leukemia and 40.1 µM in the assay on HT29 colon. In addition, the TGI in the assay on NCI-H226 lung is more than 100 µM; in the assay with NCI-H23 lung, more than 100 µM; in the assay on SF-539 CNS, 97.5 µM; in the assay with A549 NSCLC, 84 µM; with ACHN renal, more than 100 µM; in the assay on MALME-3M melanoma, 51.3 µM. The results for the TGI with RPMI-8226 leukemia and in the assay with HT29 colon were 71.9 µM and 97.6 µM, respectively.
With `CCCc1c2c([nH]c(=O)c1C)C(=O)c1[nH]c(=O)c(C)c(CCC)c1C2=O`, the TGI with NCI-H226 lung was more than 100 µM; in the assay with NCI-H23 lung, 57.4 µM; in the assay with HCC-2998 colon, more than 100 µM; with SF-539 CNS it was more than 100 µM; with A549 NSCLC, 72.7 µM; with ACHN renal, 47.6 µM. Besides, the TGI with MALME-3M melanoma is 22.2 µM; with HT29 colon, 18.7 µM; in the assay on SK-MEL-5 melanoma, 17.6 µM.
For the molecule `Cc1ccc(S(=O)(=O)N/N=C(\CCN2CCCC2)CC(c2ccccc2)c2c(O)c3ccccc3oc2=O)cc1` (configuration not stated), the TGI with NCI-H226 lung, in the assay on NCI-H23 lung, in the assay on SF-539 CNS, in the assay with A549 NSCLC, in the assay with ACHN renal and in the assay on MALME-3M melanoma was more than 100 µM throughout. Besides, the TGI in the assay on RPMI-8226 leukemia, in the assay on HT29 colon and with SK-MEL-5 melanoma was more than 100 µM in each case.
With `C/C(=N\N=C(N)N)C(CN(CC(C)C)CC(C)C)C(=O)Nc1ccc(C)cc1C` (configuration not stated), the TGI in the assay with NCI-H226 lung, in the assay with NCI-H23 lung, in the assay on HCC-2998 colon, in the assay with SF-539 CNS, with A549 NSCLC and in the assay on ACHN renal was more than 100 µM each time. For the same molecule, the TGI in the assay on MALME-3M melanoma, in the assay with HT29 colon and in the assay with SK-MEL-5 melanoma was more than 100 µM each time.
With `O=[N+]([O-])c1cnc(Sc2ccncn2)c([N+](=O)[O-])c1`, the GI50 with NCI-H23 lung is 14.3 µM; in the assay on HCC-2998 colon, 18.4 µM; in the assay with SF-539 CNS, 15.3 µM; in the assay on A549 NSCLC, 32.6 µM; in the assay on ACHN renal, 1.77 µM; with MALME-3M melanoma, 1.83 µM. The figures for the GI50 in the assay with HT29 colon and with SK-MEL-5 melanoma were 9.75 µM and 14.3 µM, respectively. The TGI in the assay with NCI-H23 lung is 37.7 µM; in the assay with HCC-2998 colon, 36.2 µM; in the assay on SF-539 CNS, 28.9 µM; in the assay with A549 NSCLC, more than 100 µM; with ACHN renal, 3.27 µM; with MALME-3M melanoma, 3.61 µM. In addition, the TGI in the assay with HT29 colon was 31.8 µM; with SK-MEL-5 melanoma, 28 µM.
In the case of `Cn1ncc(=S)[nH]c1=S`, the TGI with NCI-H226 lung, in the assay on NCI-H23 lung, in the assay on SF-539 CNS, with A549 NSCLC, in the assay with ACHN renal and in the assay on MALME-3M melanoma was more than 100 µM throughout. In the assay with RPMI-8226 leukemia, this molecule registered a TGI of more than 100 µM.
`O=P(c1ccccc1)(c1ccccc1)C1CC=C(c2ccccc2)C2(CCCC2)C1` (configuration not stated): the TGI in the assay on NCI-H226 lung is more than 100 µM; with NCI-H23 lung, more than 100 µM; with SF-539 CNS it was more than 100 µM; in the assay with A549 NSCLC, more than 100 µM; in the assay on MALME-3M melanoma, more than 100 µM; in the assay on RPMI-8226 leukemia, 52.1 µM. Besides, the TGI with HT29 colon and in the assay on SK-MEL-5 melanoma was more than 100 µM each time.
